{
  "source": "patent US20220193200A1",
  "about": "“TANNIC ACID/FE (III) NANOPARTICLES AND METHODS OF DRUG DELIVERY” (The Johns Hopkins University, priority 2019, published 2022)",
  "origin": "cited, not measured here",
  "data": [
    {"smiles": "O=C(OC[C@H]1O[C@@H](OC(=O)c2cc(O)c(O)c(OC(=O)c3cc(O)c(O)c(O)c3)c2)[C@H](OC(=O)c2cc(O)c(O)c(OC(=O)c3cc(O)c(O)c(O)c3)c2)[C@@H](OC(=O)c2cc(O)c(O)c(OC(=O)c3cc(O)c(O)c(O)c3)c2)[C@@H]1OC(=O)c1cc(O)c(O)c(OC(=O)c2cc(O)c(O)c(O)c2)c1)c1cc(O)c(O)c(OC(=O)c2cc(O)c(O)c(O)c2)c1", "note": "[tannic acid, Tannic acid]", "values": [
      {"measurement": "pKa", "value": "around 6"}
    ]}
  ]
}
